This test has as its system tobacco budworm (Heliothis virescens [Fabricius]). The experiment in a line: surface-treated diet test against the tobacco budworm. Format: in vivo. The settings on record: tobacco budworm second instar larvae, surface-treated diet, 0.25 millimoles of candidate insecticide on the surface of the diet, five-day exposure; for Percent Mortality: compared to total number of insects infested; for Percent Growth Inhibition: inhibition of insect weight relative to untreated controls. An outline of the steps: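 Wheat germ artificial diet surface-treated with 40 µL of 50 mM DMSO stock diluted 1:7 in 1:1 water/acetone (0.25 millimolar on diet), or sub-multiples for rate tests. One second-instar larva per well, 25° C, 60% RH, 5 days; percent weight inhibition vs DMSO controls and percent mortality.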

Data on 44 molecules can be found in patent US7300946B2, “N-(substituted arylmethyl)-4-(disubstituted methyl) piperidines and pyridines” (Bayer CropScience AG, priority 2002, dated 2007).

Turning to `CCn1nnc(-c2ccc(CN3CCC(C(OC(=O)Nc4ccc(Cl)cc4)c4ccc(OC)c(OC)c4)CC3)cc2)n1` (stereo not drawn) [Compound 608], the “Percent Mortality” value was 83% and the “Percent Growth Inhibition” value amounted to 100%. For `CCn1nnc(-c2ccc(CN3CCC(C(OC(=O)Nc4cc(F)cc(F)c4)c4ccc(OC)c(OC)c4)CC3)cc2)n1` (stereo not drawn) [Compound 609] the same measures were 33% and 100%.

Regarding `CCn1nnc(-c2ccc(CN3CCC(C(OC(=O)Nc4cc(F)cc(F)c4)c4ccc(C(F)(F)F)cc4)CC3)cc2)n1` (stereo not drawn) [Compound 610], the “Percent Mortality” value is on record as 100% and the “Percent Growth Inhibition” value came out at 100%. For the molecule `CCn1nnc(-c2ccc(CN3CCC(C(OC(=O)Nc4ccc(Cl)cc4)c4ccc(-c5ccccc5)cc4)CC3)cc2)n1` (stereo not drawn) [Compound 611], the “Percent Mortality” value amounted to 83% and the “Percent Growth Inhibition” value turned out to be 100%. For `CCn1nnc(-c2ccc(CN3CCC(C(OC(=O)Nc4ccc(Cl)c(Cl)c4)c4ccc(-c5ccccc5)cc4)CC3)cc2)n1` (stereo not drawn) [Compound 612] the same measures were 0% and 48%. For `CCn1nnc(-c2ccc(CN3CCC(C(OC(=O)Nc4ccc(F)c(F)c4)c4ccc(-c5ccccc5)cc4)CC3)cc2)n1` (stereo not drawn) [Compound 613] the same measures were 83% and 100%. As for `CCn1nnc(-c2ccc(CN3CCC(C(OC(=O)Nc4cc(F)cc(F)c4)c4ccc(-c5ccccc5)cc4)CC3)cc2)n1` (stereo not drawn) [Compound 614], the “Percent Mortality” value turned out to be 16% and the “Percent Growth Inhibition” value came to 99%.

On to `CCn1nnc(-c2ccc(CN3CCC(C(OC(=O)Nc4ccc(C(F)(F)F)cc4)c4ccc(-c5ccccc5)cc4)CC3)cc2)n1` (stereo not drawn) [Compound 615], for which the “Percent Mortality” value stood at 17% and the “Percent Growth Inhibition” value worked out at 72%.

`CCn1nnc(-c2ccc(CN3CCC(C(OC(=O)Nc4ccc(Cl)cc4)c4ccc(Oc5ccccc5)cc4)CC3)cc2)n1` (stereo not drawn) [Compound 616]: the “Percent Mortality” value is recorded as 100% and the “Percent Growth Inhibition” value is recorded as 100%. As for `CCn1nnc(-c2ccc(CN3CCC(C(OC(=O)Nc4ccc(Cl)c(Cl)c4)c4ccc(Oc5ccccc5)cc4)CC3)cc2)n1` (stereo not drawn) [Compound 617], the “Percent Mortality” value is on record as 0% and the “Percent Growth Inhibition” value is on record as 14%. For `CCn1nnc(-c2ccc(CN3CCC(C(OC(=O)Nc4ccc(F)c(F)c4)c4ccc(Oc5ccccc5)cc4)CC3)cc2)n1` (stereo not drawn) [Compound 618] the same measures were 100% and 100%.

With `CCn1nnc(-c2ccc(CN3CCC(C(OC(=O)Nc4cc(F)cc(F)c4)c4ccc(Oc5ccccc5)cc4)CC3)cc2)n1` (stereo not drawn) [Compound 619], the “Percent Mortality” value is 17% and the “Percent Growth Inhibition” value stood at 100%. Consider `CCn1nnc(-c2ccc(CN3CCC(C(OC(=O)Nc4cccc(C(F)(F)F)c4)c4ccc(Oc5ccccc5)cc4)CC3)cc2)n1` (stereo not drawn) [Compound 620], for which the “Percent Mortality” value was determined as 0% and the “Percent Growth Inhibition” value stood at 29%.

With `CCn1nnc(-c2ccc(CN3CCC(C(OC(=O)Nc4ccc(-c5ccccc5)cc4)c4ccc(Oc5ccccc5)cc4)CC3)cc2)n1` (stereo not drawn) [Compound 621], the “Percent Mortality” value was 0% and the “Percent Growth Inhibition” value is recorded as 4%. For `CCn1nnc(-c2ccc(CN3CCC(C(OC(=O)Nc4ccc(Oc5ccccc5)cc4)c4ccc(Oc5ccccc5)cc4)CC3)cc2)n1` (stereo not drawn) [Compound 622] the same measures were 0% and 4%.

On to `O=C(Nc1ccc(Cl)cc1)OC(c1ccc(C(F)(F)F)cc1)C1CCN(Cc2ccc(-c3ccccn3)cc2)CC1` (stereo not drawn) [Compound 627], for which the “Percent Mortality” value is listed as 100% and the “Percent Growth Inhibition” value is on record as 100%.

Consider `O=C(Nc1cc(F)cc(F)c1)OC(c1ccc(C(F)(F)F)cc1)C1CCN(Cc2ccc(-c3ccccn3)cc2)CC1` (stereo not drawn) [Compound 628], for which the “Percent Mortality” value came to 100% and the “Percent Growth Inhibition” value was determined as 100%. Regarding `O=C(Nc1ccc(Cl)cc1)OC(c1ccc(Cl)cc1)C1CCN(Cc2ccc(Oc3ccccn3)cc2)CC1` (stereo not drawn) [Compound 629], the “Percent Mortality” value is reported as 100% and the “Percent Growth Inhibition” value is 100%. In the case of `O=C(Nc1ccc(F)cc1)OC(c1ccc(Cl)cc1)C1CCN(Cc2ccc(Oc3ccccn3)cc2)CC1` (stereo not drawn) [Compound 630], the “Percent Mortality” value is on record as 100% and the “Percent Growth Inhibition” value is reported as 100%. For `O=C(Nc1cc(F)cc(F)c1)OC(c1ccc(Cl)cc1)C1CCN(Cc2ccc(Oc3ccccn3)cc2)CC1` (stereo not drawn) [Compound 631], the “Percent Mortality” value is 100% and the “Percent Growth Inhibition” value is 100%. For `Cc1cc(C)cc(NC(=O)OC(c2ccc(Cl)cc2)C2CCN(Cc3ccc(Oc4ccccn4)cc3)CC2)c1` (stereo not drawn) [Compound 632], the “Percent Mortality” value stood at 100% and the “Percent Growth Inhibition” value was 100%. With `COc1cc(NC(=O)OC(c2ccc(Cl)cc2)C2CCN(Cc3ccc(Oc4ccccn4)cc3)CC2)cc(OC)c1` (stereo not drawn) [Compound 633], the “Percent Mortality” value is on record as 50% and the “Percent Growth Inhibition” value is listed as 100%.

On to `O=C(Nc1cccc(C(F)(F)F)c1)OC(c1ccc(Cl)cc1)C1CCN(Cc2ccc(Oc3ccccn3)cc2)CC1` (stereo not drawn) [Compound 634], for which the “Percent Mortality” value is on record as 100% and the “Percent Growth Inhibition” value amounted to 100%. As to `O=C(Nc1ccc(C(F)(F)F)cc1)OC(c1ccc(Cl)cc1)C1CCN(Cc2ccc(Oc3ccccn3)cc2)CC1` (stereo not drawn) [Compound 635], the “Percent Mortality” value amounted to 100% and the “Percent Growth Inhibition” value amounted to 100%.

Take `CN(C(=O)OC(c1ccc(Cl)cc1)C1CCN(Cc2ccc(Oc3ccccn3)cc2)CC1)c1ccc(C(F)(F)F)cc1` (stereo not drawn) [Compound 636]: the “Percent Mortality” value worked out at 100% and the “Percent Growth Inhibition” value was found to be 100%. For `CCN(C(=O)OC(c1ccc(Cl)cc1)C1CCN(Cc2ccc(Oc3ccccn3)cc2)CC1)c1ccc(C(F)(F)F)cc1` (stereo not drawn) [Compound 637], the “Percent Mortality” value worked out at 100% and the “Percent Growth Inhibition” value was 100%.

As for `COC(=O)c1cccc(NC(=O)OC(c2ccc(Cl)cc2)C2CCN(Cc3ccc(Oc4ccccn4)cc3)CC2)c1` (stereo not drawn) [Compound 638], the “Percent Mortality” value stood at 100% and the “Percent Growth Inhibition” value was 100%. With `O=C(Nc1ccc(Cl)cc1)OC(c1ccc(F)cc1)C1CCN(Cc2ccc(Oc3ccccn3)cc2)CC1` (stereo not drawn) [Compound 639], the “Percent Mortality” value is recorded as 100% and the “Percent Growth Inhibition” value was 100%.

Consider `O=C(Nc1ccc(F)cc1)OC(c1ccc(F)cc1)C1CCN(Cc2ccc(Oc3ccccn3)cc2)CC1` (stereo not drawn) [Compound 640], for which the “Percent Mortality” value amounted to 100% and the “Percent Growth Inhibition” value stood at 100%.

Consider `O=C(Nc1cc(F)cc(F)c1)OC(c1ccc(F)cc1)C1CCN(Cc2ccc(Oc3ccccn3)cc2)CC1` (stereo not drawn) [Compound 641], for which the “Percent Mortality” value stood at 100% and the “Percent Growth Inhibition” value was found to be 100%.

For the molecule `O=C(Nc1cccc(C(F)(F)F)c1)OC(c1ccc(F)cc1)C1CCN(Cc2ccc(Oc3ccccn3)cc2)CC1` (stereo not drawn) [Compound 642], the “Percent Mortality” value was determined as 100% and the “Percent Growth Inhibition” value was found to be 100%. For the molecule `O=C(Nc1ccc(C(F)(F)F)cc1)OC(c1ccc(F)cc1)C1CCN(Cc2ccc(Oc3ccccn3)cc2)CC1` (stereo not drawn) [Compound 643], the “Percent Mortality” value worked out at 100% and the “Percent Growth Inhibition” value is on record as 100%. As to `O=C(Nc1ccc(Cl)cc1)OC(c1ccc(Cl)c(Cl)c1)C1CCN(Cc2ccc(Oc3ccccn3)cc2)CC1` (stereo not drawn) [Compound 645], the “Percent Mortality” value came out at 100% and the “Percent Growth Inhibition” value was found to be 100%. Turning to `O=C(Nc1ccc(F)cc1)OC(c1ccc(Cl)c(Cl)c1)C1CCN(Cc2ccc(Oc3ccccn3)cc2)CC1` (stereo not drawn) [Compound 646], the “Percent Mortality” value is reported as 100% and the “Percent Growth Inhibition” value came to 100%.

Consider `O=C(Nc1cc(F)cc(F)c1)OC(c1ccc(Cl)c(Cl)c1)C1CCN(Cc2ccc(Oc3ccccn3)cc2)CC1` (stereo not drawn) [Compound 647], for which the “Percent Mortality” value is on record as 100% and the “Percent Growth Inhibition” value came out at 100%. Consider `COc1cccc(NC(=O)OC(c2ccc(Cl)c(Cl)c2)C2CCN(Cc3ccc(Oc4ccccn4)cc3)CC2)c1` (stereo not drawn) [Compound 648], for which the “Percent Growth Inhibition” value worked out at 100%.

Regarding `O=C(Nc1cccc(C(F)(F)F)c1)OC(c1ccc(Cl)c(Cl)c1)C1CCN(Cc2ccc(Oc3ccccn3)cc2)CC1` (stereo not drawn) [Compound 650], the “Percent Mortality” value is 100% and the “Percent Growth Inhibition” value is on record as 100%. Consider `O=C(Nc1ccc(C(F)(F)F)cc1)OC(c1ccc(Cl)c(Cl)c1)C1CCN(Cc2ccc(Oc3ccccn3)cc2)CC1` (stereo not drawn) [Compound 651], for which the “Percent Mortality” value is listed as 100% and the “Percent Growth Inhibition” value is 100%. Regarding `O=C(Nc1ccc(Cl)cc1)OC(c1cccc(C(F)(F)F)c1)C1CCN(Cc2ccc(Oc3ccccn3)cc2)CC1` (stereo not drawn) [Compound 652], the “Percent Mortality” value worked out at 100% and the “Percent Growth Inhibition” value is given as 100%. As for `O=C(Nc1ccc(F)cc1)OC(c1cccc(C(F)(F)F)c1)C1CCN(Cc2ccc(Oc3ccccn3)cc2)CC1` (stereo not drawn) [Compound 653], the “Percent Mortality” value came to 100% and the “Percent Growth Inhibition” value came to 100%. Regarding `O=C(Nc1cc(F)cc(F)c1)OC(c1cccc(C(F)(F)F)c1)C1CCN(Cc2ccc(Oc3ccccn3)cc2)CC1` (stereo not drawn) [Compound 654], the “Percent Mortality” value stood at 100% and the “Percent Growth Inhibition” value is 100%.

With `O=C(Nc1cccc(C(F)(F)F)c1)OC(c1cccc(C(F)(F)F)c1)C1CCN(Cc2ccc(Oc3ccccn3)cc2)CC1` (stereo not drawn) [Compound 655], the “Percent Mortality” value amounted to 100% and the “Percent Growth Inhibition” value is 100%. As to `O=C(Nc1ccc(C(F)(F)F)cc1)OC(c1cccc(C(F)(F)F)c1)C1CCN(Cc2ccc(Oc3ccccn3)cc2)CC1` (stereo not drawn) [Compound 656], the “Percent Mortality” value came out at 100% and the “Percent Growth Inhibition” value was 100%.

Regarding `O=C(Nc1ccccc1)OC(c1ccc(C(F)(F)F)cc1)C1CCN(Cc2ccc(Oc3ccccn3)cc2)CC1` (stereo not drawn) [Compound 657], the “Percent Mortality” value came to 100% and the “Percent Growth Inhibition” value is 100%.
